Experimental data reported in patent US12163158B2, “Organoid and method for producing same” (priority 2017, dated 2024).

What was measured:
Assay type in all cases: cell-based
[1] = system: mouse ES cell-derived heart organoid; assay: Ca2+ measurement of drug responsiveness in heart organoids; details: 1 μM isoproterenol vs absence (control); 15-second recording; Fluo8 fluorescence; FIG. 40
Method: The heart organoids were washed twice with PBS and immersed in a 4 μM green fluorescent intracellular calcium indicator Fluo8 AM (acetoxymethyl) or Fluo8 AM/F127, freshly diluted with Tyrode's solution containing 1.8 mM Ca^2+, at 37° C. for 15 to 30 minutes. Thereafter, the heart organoids were washed twice with PBS, treated with 200 μL of Tyrode's solution, mounted, and observed with a fluorescence microscope (manufactured by Keyence Corporation). Specifically, first, Ca^2+ measurement was performed by the method described above (Ca Measurement) in the presence and absence (control) of 1 μM isoproterenol, which is an adrenergic […] agonist. A 15-second recording (movie) was taken, and image analysis was performed to detect the change in the intensity (Y-axis) of the fluorescent signal with time (X-axis).

[2] = system: mouse ES cell-derived embryoid bodies; assay: Heart organoid formation from embryoid bodies on LN/ET gel in the presence of FGF protein; details: bFGF instead of FGF4; not shown in the figure
Method: For the purpose of attempting to mimic such a process of developing a heart in the living body, as shown in the lower stage of FIG. 1, first, mouse ES cells were cultured in a low-binding U-bottom 96-well plate in the absence of leukemia inhibitory factor (LIP) to obtain complete embryoid bodies (EB) (1000 to 5000 cells/embryoid body). […]

[3] = system: human iPS cells (253G1) embryoid bodies; assay: Formation of heart and lung organoids from human iPS cells under conditions I to IV; details: embryoid bodies on gelated LN/ET complex; at collection (day 13 of culture or later); FIG. 49

Molecule: CC(C)NCC(O)c1ccc(O)c(O)c1 (stereo not drawn) [isoproterenol]
- change of Ca signal cycle in heart organoids [1]: shorten the Ca signal cycle (tachycardia-like)

Molecule: bFGF: fibroblast growth factor 2 (FGF2, bFGF)
- production of beating heart organoid [2]: successfully produced the same beating heart organoid

B1: condition II: additive to medium: FGF4 (30 ng/mL) (protein, UniProt P08620 31-206, looked up)
Fibroblast growth factor 4: APTAPNGTLEAELERRWESLVALSLARLPVAAQPKEAAVQSGAGDYLLGIKRLRRLYCNVGIGFHLQALPDGRIGGAHADTRDSLLELSPVERGVVSIFGVASRFFVAMSSKGKLYGSPFFTDECTFKEILLPNNYNAYESYKYPGMFIALSKNGKTKKGNRVSPTMKVTHFLPRL
- efficiency of producing heart organoids and lung organoids (combined heart and lung, separated heart and lung) [3]: 62.5%
